From patent US9120764B2, “Chromene derivatives” (Consejo Superior de Investigaciones Cientificas, priority 2010, dated 2015)

Assays:
[1] = tested on: primary T lymphocytes; assay: Inhibition of the production of cytokines by T lymphocytes caused by stimulation of the TCR; assay type: cell-based, human; conditions: anti-CD3 10 μg/ml plus anti-CD28 1 μg/ml; IFNγ at 24 hours, TNFα, IL6, IL17a at 48 hours; FIG. 4
Method: The effect of the compounds ECRA20, ECRA24, and CBM-1 on the ability of the TCR to induce the secretion of cytokines by T lymphocytes, was evaluated in primary T lymphocytes obtained from blood of healthy human donor. Lymphocytes were stimulated with 10 μg/ml of anti-CD3 plus 1 μg/ml of anti-CD28 in the presence of the indicated quantities of the compounds and the cell supernatants were collected at 24 hours (IFNγ) and 48 hours (TNFα, IL6, and IL17a) to measure the concentration of cytokines secreted in the medium (FIG. 4).

[2] = tested on: primary T lymphocytes; assay: Inhibition of the proliferation of T lymphocytes caused by stimulation of the TCR (CFSE, flow cytometry); assay type: cell-based, human; conditions: anti-CD3 10 μg/ml, 3 days, CFSE proliferation index; FIG. 3
Method: The effect of compounds ECRA20, ECRA24 and CBM-1 on the ability of the TCR to induce T lymphocyte proliferation was evaluated in primary T lymphocytes obtained from blood of healthy human donors. T lymphocytes were marked permanently with the fluorescent compound Carboxyfluorescein succinimidyl ester (CFSE) and incubated for 3 days at 37° C. on 96-well plates coated with antibody anti-CD3 (10 μg/ml) in the presence of the indicated concentrations of the compounds. Proliferation index was calculated from the intensity of fluorescence of CFSE measured by flow cytometry. As the cells divide they lose CFSE fluorescence because original fluorescence is divided between the daughter cells. This way each division is followed by a […] of CFSE per cell. So it is possible to calculate the number of divisions. Proliferation index is calculated by dividing the sum of the number of divisions by the calculated number of original parent cells, which have not divided any time. Black square indicates the rate of proliferation of lymphocytes stimulated and not treated with compounds and white square lymphocytes not stimulated with anti-CD3 (FIG. 3).

[3] = target: T1, interaction between TCR, through CD3ε, and the Nck SH3.1 domain (Homo sapiens, UniProt P16333); assay: In vitro "pull-down" assay of the TCR-Nck interaction; assay type: binding; conditions: Jurkat lysate, GST-SH3.1(Nck) on agarose beads, Western blot densitometry; FIG. 1
T1 construct: the amino-terminal human Nck1 SH3.1 domain; made in house; host or cells: bacterial cultures (GST-SH3.1); the TCR/CD3ε is endogenous, from a lysate of human Jurkat cells
Method: To do so, 10 million from human T cell line Jurkat were stimulated with 10 μg/ml of an anti-CD3 antibody for 5 minutes at 37° C. After the stimulation, the cells were lysed in isotonic buffer containing 0.3% Brij96 detergent. After removing the nucleus and other cellular debris by centrifugation, cell lysate aliquots were incubated with 10 μl of agarose beads covalently bound to glutathione and bound in turn to 5 μg of purified GST-SH3.1 (Nck) protein from bacterial cultures. The GST-SH3.1(Nck) protein corresponds to a fusion protein between glutathione S-transferase (GST) and the amino-terminal human Nck1 SH3.1 domain. Each of the aliquots of the cell lysate were incubated with GST-SH3.1 (Nck) in the presence of the indicated concentrations of inhibitors. After incubation, the agarose beads were collected by centrifugation and the quantity of TCR associated with GST-SH3.1 (Nck) was assessed by SDS-PAGE and Western blot with an antibody against TCR CD3ζ subunit. The quantification of the ratio between the quantity of TCR joined to GST-SH3.1 (Nck) in the presence of each of the concentrations of inhibitors, with respect to the amount that is attached in the absence of inhibitors, was evaluated by densitometry and is expressed under each rail as a percentage (FIG. 1).

| effect on the interaction between TCR, through CD3ε, and the Nck SH3.1 domain [3] | Compound | production of cytokines by T lymphocytes caused by stimulation of the TCR [1] | proliferation of T lymphocytes in response to stimulation of the TCR [2] |
| --- | --- | --- | --- |
| inhibitory effect | Fc1ccc(C2=C(CN3CCCC3)COc3ccccc32)cc1 [ECRA20, 1-((4-(4-Fluorophenyl)-2H-cromen-3-il)methyl)pyrrolidine] | inhibit the production of cytokines | suppress the proliferation of T lymphocytes |
| inhibitory effect | COc1ccc2c(c1)C(c1ccc(F)cc1)=C(CN1CCCC1)CO2 [ECRA24, 1-((4-(4-Fluorophenyl)-6-methoxy-2H-chromen-3-yl)methyl)pyrrolidine] | inhibit the production of cytokines | suppress the proliferation of T lymphocytes |
